The test system of data set [1] is intestinal microbiome. Description: P3A-mediated microbiome protection in humanized pigs, 16S rRNA sequencing of fecal DNA. Format: in vivo, gnotobiotic pigs populated with human adult fecal microflora. Conditions: feces collected on Day 14; antibiotics IP 50 mg/kg 4 days; P3A 75 mg/dose orally 4 times a day 7 days.
The test system of data set [2] is ampicillin-resistant aerobes including those of the phylum Proteobacteria. The data set is described as follows: Plating of Day 21 feces on LB+amp plates. Format: in vivo, gnotobiotic pigs populated with human adult fecal microflora. Conditions: aerobic conditions, 37° C. Here is the method: Equal quantities of diluted feces collected from animals at necropsy were plated on LB+amp plates and grown under aerobic conditions at 37° C., The colonies were counted while taking into account the dilution factor.
The gastrointestinal (GI) tract of 5 day old gnotobiotic pigs was populated with human adult fecal microflora. Two days later, animals received antibiotics (clindamycin or CRO, IP, 50 mg/kg) for 4 days. P3A was delivered orally 4 times a day (75 mg/dose) for 7 days beginning the day before CRO administration. Specifically, the P3A delayed-release capsules as described in Examples 1 and 2 were administered to the animals. C. difficile (2.6×10^6 cfu) was delivered orally to all animals on Day 13. Feces were collected on Days 11, 12, 14, 18, 20 directly from the rectum using sterile cotton swabs and at necropsy on Day 21 directly from the intestinal tract. […] The levels of a specific bacterial population expected to be sensitive to CRO, but not to clindamycin, ampicillin-resistant aerobes including those of the phylum Proteobacteria, were assessed by plating equal amounts of Day 21 feces on LB+amp plates. Fecal C. difficile Toxin A and interleukin-8 (ILS) were assessed via ELISA as a measure of C. difficile infection (CDI). Intestinal tracts collected at necropsy on Day 21 were evaluated histologically for signs of CDI.

Data set [3] relates to intestinal microbiome. The data set is described as follows: Whole genome shotgun sequencing and comparative metagenomics of pig fecal samples. In kind it is in vivo, gnotobiotic pigs populated with human adult fecal microflora. The conditions noted are these: for number of bacterial taxa, Genus / number of bacterial taxa, Species / number of bacterial taxa, Strain/sub-species: per treatment group, pig fecal samples. Here is the method:
In order to study the ability of P3A to protect the intestinal microbiome from antibiotics-induced (e.g., ceftriaxone (CRO)-induced) damage, pig fecal samples obtained from the study described above were subjected to additional genomic analysis. Specifically, the 16S rRNA gene V1V2 region was sequenced. In addition, fecal DNA was subjected to whole genome shotgun sequencing. Shotgun sequencing was performed using Illumina HiSeq RAPID RUN, targeting 100 bp single read with the aim to achieve approximately 10-20 million reads per sample (Table 6),
These sequence data were classified taxonomically to identify microbial communities associated with the pig fecal samples. Taxonomic classification was performed using bioInformatics algorithms and curated genome databases. Briefly, raw, unassembled shotgun sequence reads were probed against curated GeneBook bacterial and viral databases using GENIUS software package for rapid identification of bacteria communities as well as their relative abundance (Hasan of al., 2014, PLoS ONE 9:e97699; Lax et al., 2014, Science 345:1048). The analyses identified 139 bacterial strains, 79 species, and 35 genera among the treatment groups (Table 7).
Comparative metagenomics analyses were performed by creating heatmaps based on the relative abundance of each bacterial strain in each sample (see FIGS. 11A and 11B) and at the bacterial genus level (see FIG. 12) using the NMF R software package (Gaujoux and Seoighe, 2010, BMC Bioinformatics, 11:367). The samples were clustered using the maximum distance function and the Ward Hierarchical Clustering algorithm. The distance function was used to measure the difference in composition between each of the samples. The clustering algorithm used the distances between each of the samples to create a dendrogram that clustered samples with similar compositions, including both the presence and absence of organisms, in the same clades.
Comparative metagenomics analyses were also performed to investigate changes in the microbiome across different treatment groups. For these analyses, the centroid classification method from the PamR package (Tibshirani of al., 2002, PNAS 99:6567), was used to compare the average frequency (absolute abundance) of each bacterial strain in the samples. The deviation of the centroid of each bacterial strain from each study group was graphed by the overall centroid of all the study groups (FIGS. 13A and 13B).
As the number of sequence reads generated from each individual sample was variable, subsamples from each sample were chosen to represent a subset of 10 million reads. This was done to avoid any bias due to different sample sizes and to enable the measurement of the absolute abundance of the bacterial organisms in the samples. Using these subsets to reduce bias, the comparative metagenomics analyses were performed as described previously for FIGS. 13A and 13B by graphing the deviation of the centroid of each bacterial strain from each study group by the overall centroid of all the study groups (FIGS. 14A and 14B).

A further data set can be described thus: in vivo. Details: species or system Yorkshire piglets. The conditions noted are these: Yorkshire, pig; for CRO serum levels: iv, 50 mg/kg. Here is the method: A total of 10 pigs were treated once a day with IV ceftriaxone (CRO; 50 mg/kg) for a total of 7 days. A cohort of 5 pigs also received oral P3A (75 mg, four times a day), starting the day before CRO treatment and extending one day after CRO was stopped, for a total of 9 days. On Day 2 of CRO treatment, serum was collected 1, 6, and 19 hours after CRO administration. Serum was assayed for CRO levels using a validated high-performance liquid chromatography assay. […] The CRO levels in the serum collected at 19 hours was below the limit of detection of the assay (0.5 ug/mL). For both sets of histograms (1 hour and 6 hours), the left bar is ceftriaxone alone and the right bar is ceftriaxone and P3A.
Another pig study was performed to determine if oral administration of P3A (i.e. SYN-004) had any effect on the systemic levels of antibiotics. For this study, ten Yorkshire piglets, approximately 2 months old and weighing approximately 20 kg were treated with intravenous ceftriaxone (CRO) at 50 mg/kg once a day for seven days. Five animals also received P3A capsules (1 capsule containing 75 mg of P3A, four times a day) beginning the day before CRO treatment and extending to one day after CRO treatment, for a total of nine days. Specifically, the P3A delayed-release capsules as described in Examples 1 and 2 were administered to the animals. On day 2, animals were anesthetized and approximately 9 mls of blood drawn from the vena cava at three timepoints, 1 hour, 6 hours, and 19 hours after CRO administration. Blood was immediately dispensed into a serum separator vacutainer tube. After coagulation, samples were centrifuged and the serum was transferred to a cryovial and stored at −80° C. until analysis. CRO in the serum samples was quantified using a validated high-performance liquid chromatography assay (Owens et al., 2001, Int. J. Antimicrobial Agents, 17:483). A standard curve for CRO was prepared in negative control (untreated) pig serum and contained 6 points ranging from 0.5 to 50 ug/mL. The assay was linear over a range of 0.5 to 50 ug/mL. […]

Where [4] appears, read: species-level centroid classification vs Group 1 (Control).

A value given as a limit tells only on which side of the number the result lay.

As to `CO/N=C(\C(=O)N[C@@H]1C(=O)N2C(C(=O)O)=C(CSc3nc(=O)c(=O)[nH]n3C)CS[C@H]12)c1csc(N)n1` [CRO, ceftriaxone], the “phylum-level taxonomic classification of bacteria in fecal DNA” value in the data set on intestinal microbiome [1] is on record as “dysbiosis”. In addition, the “bacteria levels on LB+amp plates” value in data set [2] is “at least two log lower levels”. In addition, in the data set with intestinal microbiome [3], the “number of bacterial taxa, Genus” value is given as 32; the “number of bacterial taxa, Species” value is listed as 70; the “number of bacterial taxa, Strain/sub-species” value turned out to be 102. Moreover, in the data set on intestinal microbiome [3] (setting [4]), the “abundance of Methanobrevibacter smithii” value is listed as “overabundance” and the “abundance of Turicibacter spp” value was “underrepresentation”. In the data set “in vivo”, the concentration at 19 h is less than 500 ng/mL. In the data set “in vivo” (1 h), this molecule had a CRO serum levels of 79.43 ± 12.08 µg/mL. Besides, the CRO serum levels in the data set “in vivo” (6 h) turned out to be 5.83 ± 1.15 µg/mL.
Consider `CCC[C@@H]1C[C@@H](C(=O)N[C@@H]([C@H]2O[C@H](SC)[C@H](O)[C@@H](O)[C@H]2O)[C@H](C)Cl)N(C)C1` [clindamycin], for which, in the data set on intestinal microbiome [3], the “number of bacterial taxa, Genus” value worked out at 7; the “number of bacterial taxa, Species” value is recorded as 12; the “number of bacterial taxa, Strain/sub-species” value was found to be 17.
